Data taken from ChEMBL document CHEMBL1201862, “PubChem BioAssay data set” (2004).
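Test compounds were applied to cells in 96-well plates for 48 hours at 5 doses. GI50 marks 50% less growth.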 The source made the active and inactive calls. Cut-off read from the data, not from the text of the source: active = GI50 up to about 1.1 µM and inactive = higher.

Assays:
Assay in all cases: NCI anticancer screen, dose series, 48 h
ACHN = test system: ACHN
HL-60 = test system: HL-60
HOP-92 = test system: HOP-92
Hs-578T = test system: Hs-578T
K562 = test system: K562
LOX IMVI = test system: LOX IMVI
MCF7 = test system: MCF7
NCI-H226 = test system: NCI-H226
NCI/ADR-RES = test system: NCI/ADR-RES
OVCAR-8 = test system: OVCAR-8
PC-3 = test system: PC-3
RPMI-8226 = test system: RPMI-8226
RXF 393 = test system: RXF 393
SF-539 = test system: SF-539
SK-MEL-5 = test system: SK-MEL-5
SK-OV-3 = test system: SK-OV-3
SNB-75 = test system: SNB-75
SR = test system: SR
T47D = test system: T47D
TK-10 = test system: TK-10

| Structure (SMILES) | GI50 (ACHN) | GI50 (HL-60) | GI50 (HOP-92) | GI50 (Hs-578T) | GI50 (K562) | GI50 (LOX IMVI) | GI50 (MCF7) | GI50 (NCI-H226) | GI50 (NCI/ADR-RES) | GI50 (OVCAR-8) | GI50 (PC-3) | GI50 (RPMI-8226) | GI50 (RXF 393) | GI50 (SF-539) | GI50 (SK-MEL-5) | GI50 (SK-OV-3) | GI50 (SNB-75) | GI50 (SR) | GI50 (T47D) | GI50 (TK-10) |
| --- | --- | --- | --- | --- | --- | --- | --- | --- | --- | --- | --- | --- | --- | --- | --- | --- | --- | --- | --- | --- |
| OCCCNCc1ccccn1 | > 100 µM (inactive) | 68.1 µM (inactive) | > 100 µM (inactive) | > 100 µM (inactive) | > 100 µM (inactive) | > 100 µM (inactive) | > 100 µM (inactive) | > 100 µM (inactive) | > 100 µM (inactive) | > 100 µM (inactive) | > 100 µM (inactive) | > 100 µM (inactive) | > 100 µM (inactive) | > 100 µM (inactive) | > 100 µM (inactive) | > 100 µM (inactive) | > 100 µM (inactive) | > 100 µM (inactive) | > 100 µM (inactive) | > 100 µM (inactive) |
| O=C(c1no[n+]([O-])c1C(=O)c1csc2ccccc12)c1csc2ccccc12 | 4.54 µM (inactive) | 0.0246 µM (active) | 2.16 µM (inactive) | 10.2 µM (inactive) | 1.52 µM (inactive) | 1.25 µM (inactive) | 4.41 µM (inactive) | 12.9 µM (inactive) | 15.6 µM (inactive) | 3.09 µM (inactive) | 3.13 µM (inactive) | 0.521 µM (active) | 7.19 µM (inactive) | 2.61 µM (inactive) | 12.8 µM (inactive) | 16.1 µM (inactive) | 15.1 µM (inactive) | 0.106 µM (active) | 5.96 µM (inactive) | 1.99 µM (inactive) |
| CC(=O)c1c(SCCN2CCOCC2)n(-c2ccccc2)c(=S)n(-c2ccccc2)c1=O | 14.8 µM (inactive) | 28.5 µM (inactive) | 15.3 µM (inactive) | 39.7 µM (inactive) | 14.1 µM (inactive) | 8.39 µM (inactive) | 2.21 µM (inactive) | > 53.1 µM (inactive) | > 57 µM (inactive) | 19.3 µM (inactive) | 17.3 µM (inactive) | 8.38 µM (inactive) | 11.9 µM (inactive) | 21.6 µM (inactive) | 17.3 µM (inactive) | > 48.6 µM (inactive) | 22.3 µM (inactive) | 28.3 µM (inactive) | 17.6 µM (inactive) | 17.2 µM (inactive) |
| CC(C)c1ccc(/C=C2/C=C(c3ccc4ccccc4c3)OC2=O)cc1 | 38.4 µM (inactive) | 19.4 µM (inactive) | 37.8 µM (inactive) | > 75.2 µM (inactive) | 25.2 µM (inactive) | 40.2 µM (inactive) | 88.5 µM (inactive) | 73.5 µM (inactive) | 39.5 µM (inactive) | 45.2 µM (inactive) | 49 µM (inactive) | 31.3 µM (inactive) | > 81.1 µM (inactive) | > 100 µM (inactive) | 15.2 µM (inactive) | > 100 µM (inactive) | > 74.1 µM (inactive) | 5.94 µM (inactive) | 43 µM (inactive) | > 70.3 µM (inactive) |
| C/C(=N/NC(=S)N1CCCCCC1)c1cccc(/C(C)=N\NC(=S)N2CCCCCC2)n1 | 1.48 µM (inactive) | 1.91 µM (inactive) | 1.7 µM (inactive) | 5.2 µM (inactive) | 2.45 µM (inactive) | 1.72 µM (inactive) | 1.57 µM (inactive) | 1.75 µM (inactive) | 1.69 µM (inactive) | 1.55 µM (inactive) | 1.64 µM (inactive) | 1.91 µM (inactive) | 1.6 µM (inactive) | 1.56 µM (inactive) | 1.42 µM (inactive) | 2.43 µM (inactive) | 1.95 µM (inactive) | 2.38 µM (inactive) | 2.31 µM (inactive) | 1.77 µM (inactive) |
| COc1ccc(C=O)cc1OS(=O)(=O)C(F)(F)C(F)(F)C(F)(F)C(F)(F)F | 44.5 µM (inactive) | 8.75 µM (inactive) | 13.2 µM (inactive) | 22.6 µM (inactive) | 3.52 µM (inactive) | 15.2 µM (inactive) | 26.1 µM (inactive) | > 100 µM (inactive) | 21 µM (inactive) | 28.1 µM (inactive) | 32.3 µM (inactive) | 21.8 µM (inactive) | 21.3 µM (inactive) | 18.5 µM (inactive) | 15.5 µM (inactive) | 30.4 µM (inactive) | 31.2 µM (inactive) | 6.27 µM (inactive) | 41.7 µM (inactive) | > 49.5 µM (inactive) |
| CC1(C)OC2[C@@H](CO[C@@]3([C@H]4OC(C)(C)O[C@@H]4CO)OC(C)(C)O[C@@H]23)O1 (some centres undefined) | > 100 µM (inactive) | > 100 µM (inactive) | > 100 µM (inactive) | > 100 µM (inactive) | > 100 µM (inactive) | > 100 µM (inactive) | > 100 µM (inactive) | > 100 µM (inactive) | > 100 µM (inactive) | > 100 µM (inactive) | > 100 µM (inactive) | > 100 µM (inactive) | > 100 µM (inactive) |  | > 100 µM (inactive) | > 100 µM (inactive) | > 100 µM (inactive) | > 100 µM (inactive) | > 100 µM (inactive) | > 100 µM (inactive) |
